We go through 13 molecules from patent publication US11753411B2, “Substituted pyrazolo[1,5-a]pyrimidines as TYK2 pseudokinase ligands” (Ventyx Biosciences, Inc., priority 2019, dated 2023).

The subject of the experiment is IFN-a/Jak1 Tyk2. Nature of the experiment: Co-stimulation assay in lysed whole blood: IFNa (JAK1/TYK2) stimulated STAT1 phosphorylation. The following applies: Homo sapiens, 20 min, 100 ng/mL IFNa (with 10 ng/mL GM-CSF), pSTAT by flow cytometry. Format: cell-based. Here is the method:
Example 12: Co-Stimulation Assay in Lysed Whole Blood; JAK2: GM-CSF Stimulated STAT5 Phosphorylation and JAK1/TYK2 Stimulated STAT1 Phosphorylation Assay
Human Blood Lysis Using Abcam's RBC Lysis Buffer
Dilute RBC lysis buffer to 1× in distilled water. Add 2 mL blood to 38 mL of 1×RBC-lysis buffer. Incubate for 15 mins at RT, in dark. Spin at 300 g, 5 mins, to collect the pellet. Re-lyse if necessary. Re-suspend pellet in 5 mL of cRPMI.
Compound and Cytokine Treatment
Aliquot 80 μL of lysed human blood in to wells of 96 deep-well plate. Add 10 μl of (10× conc.) of different concentrations of compounds to all wells except controls (unstained and unstimulated) and mix it with the help of 100 uL multichannel. Add 10 uL of RPMI media in controls. For dilution of compounds and dilution range please refer Appendix. Incubate on water bath or CO2 incubator for 1 hour at 37° C. Add 10 μl of (10× conc.) of cytokine mix (GM-CSF and IFNa) (final conc.10 ng/mL of GM-CSF and 100 ng/mL of IFNa) to each well except unstimulated and unstained controls and incubate further for 20 minutes on water bath at 37° C.
Add 900 μL of prewarmed 1× Fix/Lyse solution (Appendix) and mix it properly using 1000 μl multichannel, incubate further on water bath at 37° C. for 10 minutes (which includes time of addition). Centrifuge at 800×g for 5 minutes at 40° C.; remove 900 uL of supernatant and add 900 μL of 1×PBS. Centrifuge at 800×g for 5 minutes at 40° C., remove 900 μL of supernatant. Wash one more time with 900 μL of PBS (optional) and resuspend pellets in 100 uL of PBS.
Disrupt the pellet by gentle tapping and resuspend in 1000 μL of BD Phosflow Perm Buffer III and incubate plate on ice for 30 minutes. Centrifuge plate at 800×g for 5 minutes at 40° C. Wash two more times with 1000 μL of BD Pharmingen Stain Buffer.
Disrupt the pellet by gentle tapping. Resuspend pellets in 100 uL of Stain Buffer and add 5 μL of pSTAT5_AF488 Ab and 5 uL of pSTAT_PE in all wells except unstained control and mix properly using 200 μl multichannel, incubate overnight at […]. Add 900 μL of wash buffer and centrifuge at 1800 rpm for 3 minutes at 40° C. Wash one more time with 1000 μL of BD Pharmingen Stain Buffer. Finally resuspend the pellet in 300 uL of BD Pharmingen Stain Buffer. Transfer the cells to 96-well v-bottom plate and acquire the cells in Beckman Coulter CytExpert. Acquiring cells in Flow Cytometer: Keep the threshold value to 250 and cell concentration should not exceed 100-500 cells/μL. Acquire at least 5,000-10,000 cells.
RPMI 1640 Complete Medium: RPMI 1640 media+10% FBS.
Cytokine dilution: 1) GM-CSF Stock at 100 ug/mL. Prepare an intermediate dilution of 1 ug/mL by adding 2 uL of stock into 198 uL of cRPMI. Further dilute to 100 ng/mL by adding 100 uL of the intermediate stock to 900 uL of cRPMI. 2) IFNa Stock at 200 ug/mL. Dilute IFNa stock 1:200 by adding 5 uL of stock into the 1000 uL of 100 ng/mL GM-CSF working stock as above to give a combined working stock of 1000 ng/mL of IFNa and 100 ng/mL GM-CSF (10×). Keep it on ice until used.
Lyse/Fix buffer preparation: Dilute 5× Lyse/Fix buffer to 1× using MQ water and keep at 37° C. until used.
BD Phosflow perm buffer III: Keep on ice/fridge.
For orientation: In flow cytometry, cells or beads pass a laser one at a time.

Usually IC50 stands for the concentration at which inhibition is half-maximal. `CNC(=O)Nc1cnn2c(NC)cc(Nc3cccc4c3OCCO4)nc12` [Compound 7, 1-(5-((2,3-dihydrobenzo[b][1,4]dioxin-5-yl)amino)-7-(methylamino)pyrazolo[1,5-a]pyrimidin-3-yl)-3-methylurea]: the IC50 is under 1000 nM.

`CNc1cc(Nc2cccc3c2OCCO3)nc2c(NC(N)=O)cnn12` [Compound 10, 1-(5-((2,3-dihydrobenzo[b][1,4]dioxin-5-yl)amino)-7-(methylamino)pyrazolo[1,5-a]pyrimidin-3-yl)urea]: the IC50 was under 1000 nM.

`[2H]C([2H])([2H])Nc1cc(Nc2cccc3c2OCCO3)nc2c(NC(=O)NC)cnn12` [Compound 13, 1-(5-((2,3-dihydrobenzo[b][1,4]dioxin-5-yl)amino)-7-((methyl-d3)amino)pyrazolo[1,5-a]pyrimidin-3-yl)-3-methylurea] returned an IC50 of under 1000 nM.

`CNC(=O)Nc1cnn2c(NC)cc(Nc3cccn(-c4ccc(OC)nn4)c3=O)nc12` [Compound 17, 1-(5-((1-(6-methoxypyridazin-3-yl)-2-oxo-1,2-dihydropyridin-3-yl)amino)-7-(methylamino)pyrazolo[1,5-a]pyrimidin-3-yl)-3-methylurea] had an IC50 of 1000 to 10000 nM.

In turn, `CNC(=O)Nc1cnn2c(NC)cc(Nc3cccc(-c4cnn(C)c4)c3OC)nc12` [Compound 19, 1-(5-((2-methoxy-3-(1-methyl-1H-pyrazol-4-yl)phenyl)amino)-7-(methylamino)pyrazolo[1,5-a]pyrimidin-3-yl)-3-methylurea] had an IC50 of 1000 to 10000 nM.

In turn, `CNc1cc2nc3c(cnn13)NC(=O)NCCOc1cccc(c1)N2` [Compound 22, (1^3E,1^4E)-1^7-(methylamino)-4-oxa-2,7,9-triaza-1(5,3)-pyrazolo[1,5-a]pyrimidina-3(1,3)-benzenacyclononaphan-8-one] yielded an IC50 of 1000 to 10000 nM.

In the case of `CNc1cc2nc3c(cnn13)NC(=O)NCCc1cccc(c1)N2` [Compound 25, (1^3E,1^4E)-1^7-(methylamino)-2,6,8-triaza-1(5,3)-pyrazolo[1,5-a]pyrimidina-3(1,3)-benzenacyclooctaphan-7-one], the IC50 was under 1000 nM.

For `CNc1cc(Nc2cccc3c2OCCO3)nc2c(NC(=O)N[C@@H]3C[C@@H]3F)cnn12` [Compound 26, 1-(5-((2,3-dihydrobenzo[b][1,4]dioxin-5-yl)amino)-7-(methylamino)pyrazolo[1,5-a]pyrimidin-3-yl)-3-((1R,2S)-2-fluorocyclopropyl)urea], the IC50 was under 1000 nM.

As for `CNc1cc(Nc2cccc3c2OCCO3)nc2c(NC(=O)NC3CC(C#N)C3)cnn12` (stereo not shown) [Compound 27, 1-(3-cyanocyclobutyl)-3-(5-((2,3-dihydrobenzo[b][1,4]dioxin-5-yl)amino)-7-(methylamino)pyrazolo[1,5-a]pyrimidin-3-yl)urea], the IC50 was under 1000 nM.

`CNc1cc(Nc2cccc3c2OCCO3)nc2c(NC(=O)NC3(C#N)CC3)cnn12` [Compound 28, 1-(1-cyanocyclopropyl)-3-(5-((2,3-dihydrobenzo[b][1,4]dioxin-5-yl)amino)-7-(methylamino)pyrazolo[1,5-a]pyrimidin-3-yl)urea] registered an IC50 of at least 10000 nM.

In turn, `CNc1cc(Nc2cccc3c2OCCO3)nc2c(NC(=O)NC3CC(O)C3)cnn12` (stereo not shown) [Compound 29, 1-(5-((2,3-dihydrobenzo[b][1,4]dioxin-5-yl)amino)-7-(methylamino)pyrazolo[1,5-a]pyrimidin-3-yl)-3-(3-hydroxycylcobutyl)urea] yielded an IC50 of 1000 to 10000 nM.

Molecule `CNc1cc(Nc2cccc3nccnc23)nc2c(NC(=O)NC3CC3O)cnn12` (stereo not shown) [Compound 30, 1-(2-hydroxycyclopropyl)-3-(7-(methylamino)-5-(quinoxalin-5-ylamino)pyrazolo[1,5-a]pyrimidin-3-yl)urea] came in with an IC50 of at least 10000 nM.

Molecule `CNc1cc(Nc2cccc3cccnc23)nc2c(NC(=O)NC3CC3O)cnn12` (stereo not shown) [Compound 31, 1-(2-hydroxycyclopropyl)-3-(7-(methylamino)-5-(quinolin-8-ylamino)pyrazolo[1,5-a]pyrimidin-3-yl)urea] gave an IC50 of at least 10000 nM.
